Earlier results in patent publication US20040047892A1, “Filler composition for soft tissue augmentation and reconstructive surgery” (priority 2003, published 2004).

collagen
time until the filler disappears (depending on the patient and site of injection): within a few months
share of the population allergic (in vivo): about 3%
